Test results: US10124012B2, “Method for treatment of hyperglycemia and hyperlipidemia” (priority 2016, dated 2018)

Key:
Format in all cases: in vivo, C57BL/6J mice
[1] = test system: DGAT2; experiment: Liver mRNA by semi-quantitative RT-PCR: DGAT2; conditions: HFD-fed mice, oral gavage once daily 4 weeks, AnK 10, 20, 40, Feno 250, Metf 300 mg/kg/day, vs HF group
From the text: (§1) The 4-week old male C57BL/6J mice (total amount n=63) were obtained from the National Laboratory Animal Center (Taipei, Taiwan). After acclimatization for one week, all of the mice were randomly assigned into a control (CON) group and a high-fat diet (HFD) group. […] After HFD feeding for 8 weeks, the HFD group was randomly subdivided into six groups (n=9 per group) receiving different treatments and fed on HFD. […] The HF+AnK1, HF+AnK2, and HF+AnK3 groups are collectively termed AnK-treated HFD groups in the following examples. The CON mice were administered vehicle. All treatments were administered via oral gavage once daily. After administration for 4 weeks, all mice were fasted 12 hours, and blood was collected from the retro-orbital sinus under ether anesthesia. […]
Total RNA from liver tissue of mice was isolated with a Trizol Reagent (Molecular Research Center, Inc., Cincinnati, Ohio, USA) according to the manufacturer's instructions. The integrity of the extracted total RNA was examined by 2% agarose gel electrophoresis, and the RNA concentration was determined by the ultraviolet (UV) light absorbency at 260 nm and 280 nm (Spectrophotometer U-2800A, Hitachi). […]
Levels of mRNA of target genes were quantified by semi-quantitative reverse transcription polymerase chain reaction (RT-PCR). […] PCR products were analyzed by 2% agarose gel and stained with ethidium bromide.

[2] = test system: high-fat diet-fed C57BL/6J mouse; experiment: Body weight, tissue weights and food intake in HFD-fed mice; conditions: for Absolute tissue weight Visceral fat: sum of EWAT and RWAT
From the text: (§2) The 4-week old male C57BL/6J mice (total amount n=63) were obtained from the National Laboratory Animal Center (Taipei, Taiwan). After acclimatization for one week, all of the mice were randomly assigned into a control (CON) group and a high-fat diet (HFD) group. […] After HFD feeding for 8 weeks, the HFD group was randomly subdivided into six groups (n=9 per group) receiving different treatments and fed on HFD. […] The HF+AnK1, HF+AnK2, and HF+AnK3 groups are collectively termed AnK-treated HFD groups in the following examples. The CON mice were administered vehicle. All treatments were administered via oral gavage once daily. After administration for 4 weeks, all mice were fasted 12 hours, and blood was collected from the retro-orbital sinus under ether anesthesia. At the end of the experiment, the mice were sacrificed via carbon dioxide inhalation. Liver, adipose tissue, and skeletal muscle were collected and immediately stored at −80° C. for target gene analysis.
The metabolic parameters, including body weight, weight gain, and food intake, were performed as the following. Body weight was daily measured at the same time throughout the study. Body weight gain is considered as the weight difference between two consecutive days. The amount of pellet food was weighted, followed by weighting the amount of remaining food after 24 hours. The difference between the two weights is defined as daily food intake.

[3] = test system: PPARα; experiment: Western blotting of hepatic PPARα; conditions: liver; HFD-fed mice; AnK 10, 20, 40, Feno 250, Metf 300 mg/kg/day; vs HF group
From the text: as §1, with “anesthesia. At the end of the experiment, the mice were sacrificed via carbon dioxide inhalation.” for “anesthesia.”
About 0.1 g of liver tissue, skeletal muscle, or adipose tissue was used for the homogenate samples. […] The protein concentration in supernatant was determined with a BCA protein assay kit (Thermo Scientific, Rockford, Ill., USA). […] Immunoreactive bands were detected with ECL reagent kit (GE Healthcare BioSciences, Buckinghamshire, UK). The intensity of Western blot signals was analyzed using AlphaEase FC software (Alpha Innotech Corporation, Randburg, South Africa). […]

[4] = test system: FAS; experiment: Western blotting of FAS in liver and adipose tissue; conditions: HFD-fed mice, AnK 10, 20, 40, Feno 250, Metf 300 mg/kg/day, vs HF group; for expression levels of FAS (protein): adipose tissue; for FAS expression levels (protein): liver
From the text: as §2
About 0.1 g of liver tissue, skeletal muscle, or adipose tissue was used for the homogenate samples. Samples were powdered under liquid nitrogen and homogenized for 20 seconds in 500 μL buffer containing 20 mM Tris-HCl (pH 7.4 at 4° C.), 2% SDS, 5 mM EDTA, 5 mM EGTA, 1 mM dithiothreitol (DTT), 100 mM NaF, 2 mM sodium vanadate, 0.5 mM phenylmethylsulfonyl fluoride, 10 μg/mL leupeptin, and 10 μL/mL pepstatin. The total membrane fraction was used for measurement. The protein concentration in supernatant was determined with a BCA protein assay kit (Thermo Scientific, Rockford, Ill., USA). […] The membrane was blocked with 5% slim milk in Tris-buffered saline (TBS)(Amersham BioSciences, Uppsala, Sweden) containing 0.05% Tween-20 (Bio Rad, CA, USA) and incubated overnight at 4° C. with antibodies at 1:200 dilution. Subsequently, the membrane was washed three times with TBS containing 0.05% Tween-20 and incubated with secondary antibody anti-rabbit (1:1000)(Jackson ImmunoResearch Laboratories, Inc., PA, USA) for 1 hour. Immunoreactive bands were detected with ECL reagent kit (GE Healthcare BioSciences, Buckinghamshire, UK). The intensity of Western blot signals was analyzed using AlphaEase FC software (Alpha Innotech Corporation, Randburg, South Africa). The structural protein GAPDH in the samples was used as the loading control.

[5] = HF + AnK1: AnK 10 mg/kg/day oral gavage 4 weeks
[6] = HF + AnK2: AnK 20 mg/kg/day oral gavage 4 weeks
[7] = HF + AnK3: AnK 40 mg/kg/day oral gavage 4 weeks
[8] = HF + Metf: metformin 300 mg/kg/day oral gavage 4 weeks

## C=C(CC[C@@H](C)[C@H]1CC[C@H]2C3=C(C(=O)C[C@]12C)[C@@]1(C)CC[C@@H](O)[C@](C)(O)[C@@H]1C[C@@H]3O)C(C)C(=O)O (stereo partly drawn) [AnK, 3α,4β,7β-trihydroxy-4α-methylergosta-8,24(28)-dien-11-on-25S-26-oic acid]
[1]
  mRNA levels of DGAT2: significantly decreased
[2]; [5]
  Absolute tissue weight BAT: 0.178 ± 0.007 g
  Absolute tissue weight EWAT: 0.867 ± 0.065 g
  Absolute tissue weight Liver: 0.946 ± 0.030 g
  Absolute tissue weight MWAT: 0.349 ± 0.020 g
  Absolute tissue weight RWAT: 0.323 ± 0.039 g
  Absolute tissue weight Skeletal muscle: 0.395 ± 0.036 g
  Absolute tissue weight Spleen: 0.090 ± 0.003 g
  Final body weight: 28.30 ± 0.61 g
  Food intake: 1.95 ± 0.05 g/day/mouse
  Weight gain: 1.39 ± 0.81 g
  Absolute tissue weight Visceral fat: 1.190 ± 0.093 g
[2]; [6]
  Absolute tissue weight BAT: 0.172 ± 0.010 g
  Absolute tissue weight EWAT: 0.841 ± 0.062 g
  Absolute tissue weight Liver: 0.888 ± 0.019 g
  Absolute tissue weight MWAT: 0.340 ± 0.013 g
  Absolute tissue weight RWAT: 0.339 ± 0.031 g
  Absolute tissue weight Skeletal muscle: 0.364 ± 0.022 g
  Absolute tissue weight Spleen: 0.085 ± 0.003 g
  Final body weight: 27.55 ± 0.72 g
  Food intake: 1.92 ± 0.07 g/day/mouse
  Weight gain: 0.70 ± 0.86 g
  Absolute tissue weight Visceral fat: 1.180 ± 0.106 g
[2]; [7]
  Absolute tissue weight BAT: 0.175 ± 0.008 g
  Absolute tissue weight EWAT: 0.809 ± 0.058 g
  Absolute tissue weight Liver: 0.883 ± 0.018 g
  Absolute tissue weight MWAT: 0.332 ± 0.025 g
  Absolute tissue weight RWAT: 0.306 ± 0.040 g
  Absolute tissue weight Skeletal muscle: 0.364 ± 0.028 g
  Absolute tissue weight Spleen: 0.104 ± 0.007 g
  Final body weight: 27.48 ± 0.46 g
  Food intake: 1.98 ± 0.04 g/day/mouse
  Weight gain: 0.58 ± 0.35 g
  Absolute tissue weight Visceral fat: 1.154 ± 0.096 g
[3]
  PPARα expression levels (protein): significantly increased
[4]
  expression levels of FAS (protein): significantly reduced
  FAS expression levels (protein): decreased

## CN(C)C(=N)N=C(N)N [Metf, metformin, reference compound]
[1]
  mRNA levels of DGAT2: significantly decreased
[2]; [8]
  Absolute tissue weight BAT: 0.220 ± 0.025 g
  Absolute tissue weight EWAT: 0.813 ± 0.064 g
  Absolute tissue weight Liver: 0.908 ± 0.031 g
  Absolute tissue weight MWAT: 0.270 ± 0.018 g
  Absolute tissue weight RWAT: 0.298 ± 0.027 g
  Absolute tissue weight Skeletal muscle: 0.380 ± 0.025 g
  Absolute tissue weight Spleen: 0.093 ± 0.006 g
  Final body weight: 27.86 ± 0.72 g
  Food intake: 1.89 ± 0.04 g/day/mouse
  Weight gain: 0.92 ± 0.08 g
  Absolute tissue weight Visceral fat: 1.111 ± 0.077 g
[3]
  PPARα expression levels (protein): significantly increased
[4]
  expression levels of FAS (protein): significantly reduced
  FAS expression levels (protein): decreased
